Test results taken from EP4269424A1, “NOVEL ANTIVIRAL COMPOUNDS AND USE THEREOF” (priority 2022, dated 2023).
No end group written: not given here.

How the values were obtained:
[1] = biological target: G3BP1; format: binding, human
[2] = tested on: Vero E6 cells

Compound | Kd [1] [µM] | cell viability [2]
CC[C@H](C)[C@H](NC(=O)CNC(=O)[C@H](CO)NC(=O)[C@H](C)NC(=O)[C@H](CC(C)C)NC(=O)[C@H](C)NC(=O)[C@H](CCC(=O)O)NC(=O)[C@H](Cc1c[nH]cn1)NC(=O)[C@H](CCC(=O)O)NC(=O)[C@H](CC(=O)O)NC(=O)[C@H](Cc1ccccc1)NC(=O)[C@H](CC(=O)O)NC(=O)CNC(=O)[C@H](Cc1ccccc1)NC(=O)[C@@H](NC(=O)[C@@H](N)CC(C)C)[C@@H](C)O)C(=O)N[C@H](C(=O)N[C@@H](Cc1ccccc1)C(=O)NCC(=O)N[C@@H](CC(=O)O)C(=O)N[C@@H](Cc1ccccc1)C(=O)N[C@@H](CC(=O)O)C(=O)N[C@@H](CC(=O)O)C(=O)N[C@@H](Cc1c[nH]c2ccccc12)C(=O)O)[C@@H](C)O [G3BPi spacer2] | 4.4 | 
CC[C@H](C)[C@H](NC(=O)CNC(=O)[C@H](CO)NC(=O)[C@H](C)NC(=O)[C@H](CC(C)C)NC(=O)[C@H](C)NC(=O)[C@H](CC(=O)O)NC(=O)[C@@H](NC(=O)[C@H](CCC(=O)O)NC(=O)[C@H](Cc1c[nH]cn1)NC(=O)[C@H](CCC(=O)O)NC(=O)[C@H](CC(=O)O)NC(=O)[C@H](Cc1ccccc1)NC(=O)[C@H](CC(=O)O)NC(=O)CNC(=O)[C@H](Cc1ccccc1)NC(=O)[C@@H](NC(=O)[C@H](CC(C)C)NC(=O)[C@H](CCCNC(=N)N)NC(=O)[C@H](CCCNC(=N)N)NC(=O)[C@H](CCCNC(=N)N)NC(=O)[C@H](CCC(N)=O)NC(=O)[C@H](CCCNC(=N)N)NC(=O)[C@H](CCCNC(=N)N)NC(=O)[C@H](CCCCN)NC(=O)[C@H](CCCCN)NC(=O)[C@H](CCCNC(=N)N)NC(=O)CNC(=O)[C@@H](N)Cc1ccc(O)cc1)[C@@H](C)O)C(C)C)C(=O)N[C@H](C(=O)N[C@@H](Cc1ccccc1)C(=O)NCC(=O)N[C@@H](CC(=O)O)C(=O)N[C@@H](Cc1ccccc1)C(=O)N[C@@H](CC(=O)O)C(=O)N[C@@H](CC(=O)O)C(=O)O)[C@@H](C)O [G3BPi WT] |  | not affected
LTFGDFTGSTGSTGSTGITFGDFDDW [G3BPi spacer3] | 2.4 | 
